What was measured:
[1] = biological target: Sigma non-opioid intracellular receptor 1 (Homo sapiens, UniProt Q99720); test: DRUGMATRIX: Sigma1 radioligand binding (ligand: [3H] Haloperidol); assay type: cell membranes, Jurkat, Membrane; conditions: jurkat; Not Active = under 50% inhibition at 10 µM
[2] = biological target: T1, Endothelin-1 receptor (Homo sapiens, UniProt P25101); assay type: cell membranes, Membrane; conditions: cho-k1; further: in other assays of this panel Not Active means under 50% inhibition at 10 µM
T1 sequence (P25101 whole entry): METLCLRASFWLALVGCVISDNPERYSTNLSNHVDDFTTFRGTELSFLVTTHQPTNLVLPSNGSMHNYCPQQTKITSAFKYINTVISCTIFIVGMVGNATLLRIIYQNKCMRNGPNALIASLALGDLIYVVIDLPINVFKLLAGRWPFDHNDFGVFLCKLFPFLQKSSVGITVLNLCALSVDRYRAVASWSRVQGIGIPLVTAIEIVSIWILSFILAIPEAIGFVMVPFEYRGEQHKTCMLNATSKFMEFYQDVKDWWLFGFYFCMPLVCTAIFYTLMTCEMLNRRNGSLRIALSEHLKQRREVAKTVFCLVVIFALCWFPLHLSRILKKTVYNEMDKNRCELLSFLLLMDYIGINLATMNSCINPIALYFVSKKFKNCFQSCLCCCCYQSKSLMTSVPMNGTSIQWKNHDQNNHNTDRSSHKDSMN

[3] = DRUGMATRIX: Glutamate, AMPA radioligand binding (ligand: [3H] AMPA); assay type: cell membranes, Rattus norvegicus, Wistar, Cerebral cortex, Membrane; conditions: Not Active = under 50% inhibition at 10 µM
[4] = biological target: T2, Muscarinic acetylcholine receptor M5 (Homo sapiens, UniProt P08912); assay type: cell membranes, CHO-K1, Membrane; conditions: cho-k1; further: in other assays of this panel Not Active means under 50% inhibition at 10 µM
T2 sequence (P08912 whole entry): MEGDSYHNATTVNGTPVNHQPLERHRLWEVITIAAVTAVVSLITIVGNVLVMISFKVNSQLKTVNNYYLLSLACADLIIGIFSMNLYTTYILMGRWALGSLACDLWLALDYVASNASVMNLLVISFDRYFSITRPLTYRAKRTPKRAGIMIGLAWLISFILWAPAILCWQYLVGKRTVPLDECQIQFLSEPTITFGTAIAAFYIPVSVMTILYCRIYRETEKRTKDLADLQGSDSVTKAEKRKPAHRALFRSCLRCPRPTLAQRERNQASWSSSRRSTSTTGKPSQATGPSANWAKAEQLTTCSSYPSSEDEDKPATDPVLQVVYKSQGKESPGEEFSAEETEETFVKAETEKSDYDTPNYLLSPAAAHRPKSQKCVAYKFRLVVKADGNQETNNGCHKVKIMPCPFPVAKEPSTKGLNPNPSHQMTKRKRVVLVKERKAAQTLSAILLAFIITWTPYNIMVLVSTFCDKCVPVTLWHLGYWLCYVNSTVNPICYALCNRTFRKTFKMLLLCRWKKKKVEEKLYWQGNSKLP

[5] = DRUGMATRIX: Platelet-Derived Growth Factor (PDGF) radioligand binding (ligand: [125I] PDGF); assay type: cell-based; conditions: nih3t3; Not Active = under 50% inhibition at 10 µM
[6] = DRUGMATRIX: Potassium Channel [KATP] radioligand binding (ligand: [3H] Glyburide); assay type: cell membranes, Membrane; conditions: hit-t15; Not Active = under 50% inhibition at 10 µM

Chain of Sigma non-opioid intracellular receptor 1 (Q99720 whole entry): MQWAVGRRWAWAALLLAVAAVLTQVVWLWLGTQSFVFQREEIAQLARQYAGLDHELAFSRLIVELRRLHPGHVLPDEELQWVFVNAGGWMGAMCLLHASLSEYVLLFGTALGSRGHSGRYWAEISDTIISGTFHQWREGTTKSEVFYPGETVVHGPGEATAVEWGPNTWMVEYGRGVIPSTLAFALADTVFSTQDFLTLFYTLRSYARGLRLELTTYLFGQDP

COc1ccc(C[C@H](N)C(=O)N[C@H]2[C@@H](O)[C@H](n3cnc4c(N(C)C)ncnc43)O[C@@H]2CO)cc1 [PUROMYCIN]
Not Active: IC50 [1] | IC50 [2] | IC50 [3] | Ki [3] | IC50 [4] | IC50 [5] | Ki [5] | IC50 [6] | Ki [6]

O=c1[nH]c2ccccc2c2ccccc12
Not Active: IC50 [1] | IC50 [2] | IC50 [3] | Ki [3] | IC50 [4] | IC50 [5] | Ki [5] | IC50 [6] | Ki [6]

COPPER(II) OXIDE
Not Active: IC50 [1] | Ki [1] | IC50 [2] | Ki [2] | IC50 [3] | Ki [3] | IC50 [4] | Ki [4] | IC50 [5] | Ki [5] | IC50 [6] | Ki [6]

CC12CCC(CC1)C(C)(C)O2 [EUCALYPTOL]
Not Active: IC50 [1] | IC50 [2] | IC50 [3] | Ki [3] | IC50 [4] | IC50 [5] | Ki [5] | IC50 [6] | Ki [6]
